From patent US20130005759A1, “SMALL MOLECULE MODIFIERS OF MICRORNA MIR-122” (North Carolina State University, priority 2010, published 2013)

What was measured:
[1] = test system: psiCHECK-control vector (no miRNA target sequence); experiment: psiCHECK-control vector luciferase counter-assay in Huh7 cells; type: cell-based, human; details: Huh7, 10 μM
Description: (FIG. 3). […] The relative luciferase units were normalized to the corresponding DMSO signals. […] This confirms that compound 2 and the antagomir have similar effects on the reduction of miR-122 function in Huh7 cells.
Compounds which elicited greater than a 5-fold increase of the relative luciferase units signal compared to the DMSO control were then re-assayed in triplicate to confirm the validity of the hit compound. Upon secondary validation of miR-122 inhibition, identical assays were repeated with the psiCHECK-Control vector to ascertain that the effect is specific to the miR-122 pathway, and not simply affecting the Renilla gene. In order to assess the relative degree of miR-122 inhibition, Huh7 cells were also co-transfected with either the psiCHECK-Control plasmid or the psiCHECK-miR122 plasmid (0.5 μg) and a miR-122 2′-OMe PS antagomir (50 pmol; 5′ […] (SEQ ID NO:4) 3′; IDT DNA)(2) using the X-tremGENE transfection reagent (Roche Applied Science, 4:2 reagent/DNA ratio). The transfection media was replaced with standard DMEM growth media after 4 hours and the cells were incubated for 48 hours prior to analysis with a Dual Luciferase Assay Kit (FIG. 3).

[2] = test system: miR-21; experiment: miR-21 luciferase reporter assay in HeLa-miR-21-Luc cells; type: cell-based; details: 10 μM, 48 hours
Method: Using the previously described HeLa-miR-21-Luc cell line (a stably transfected line harboring a miR-21 binding sequence in the 3′ UTR of a firefly luciferase gene),(9) cells were grown to 80% confluency (DMEM) and treated with either DMSO, the previously reported miR-21 inhibitor, or compounds 1 and 2 at 10 μM (1% DMSO final concentration). The cells were incubated for 48 hours at 37° C. (5% CO2) and then assayed with a Bright-Glo Luciferase Kit (Promega) and analyzed using a Wallac VICTOR^3V luminometer with a measurement time of 1 s and a delay time of 2 s (FIG. 4).

[3] = test system: miR-122; experiment: psiCHECK-miR122 dual luciferase reporter assay in Huh7 cells; type: cell-based, human; details: for EC50: Homo sapiens, Huh-7, read-out: EC50 (miR-122 inhibitors, luciferase dose response); for Renilla luciferase expression with psiCHECK-miR122 (in words): Huh7, 10 μM (antagomir transfected), normalized to DMSO; for increase in the relative luciferase signal / relative luciferase units (RLU) normalized to a DMSO control: Huh7, psiCHECK-miR122, 10 μM; for increase in the relative luciferase signal: 48 hours; for relative luciferase units (RLU) normalized to a DMSO control: mean ± SD of three independent assays
Description: A miRNA small molecule modifier screen for miR-122 was developed based on the psiCHECK-2 (Promega) reporter plasmid (FIG. 9). This construct expresses both Renilla luciferase as well as firefly luciferase, allowing for the normalization of the signal to account for differential cellular viability and variability in transfection efficiency. The miR-122 target sequence was inserted downstream of the Renilla luciferase gene, between the PmeI and SgfI restriction sites. In another aspect of the invention, plasmids expressing luciferase or another reporter gene such as for example, fluorescent reporters (GFP and variants thereof, DsRed, etc.) or beta-galactosidase can be used to screen for small molecule modifiers of miR-122. The mi-122 target sequence may be upstream or downstream of the reporter gene. Multiple miR-122 target sites can also be inserted into or be present in the plasmid.
The presence of mature miR-122 will lead to a decrease in the Renilla luciferase signal (FIG. 1a). The ability to detect endogenous miR-122 was validated by transfecting the generated psiCHECK-miR122 construct into Huh7 and HeLa cells. After 48 hour incubation, the cells were assayed using a Dual Luciferase Assay Kit (Promega). In another embodiment, the cells can be incubated for about 24-96 hours. The Dual Luciferase Assay Kit provides a means to measure the amount of the luciferases by generating a luminescent signal. Using this assay the luminescence from the firefly luciferase reaction may be quenched while the luminescent reaction of Renilla luciferase can be activated. Other assays and procedures that can determine the amount of the one or more reporter genes or miR-122 expression, activity or function can be used. An example of another assay is Dual-Glo Assay (Promega).
The psiCHECK-miR122 vector was then employed in a small molecule screen in Huh7 cells to discover modifiers of miR-122 function. Other cells that express miR-122 such as HepG2 and Hep3B can be used in addition to or instead of Huh7 cells. An increase in the relative Renilla luciferase signal indicates a miR-122 inhibitor, while a reduction in the luciferase signal indicates a miR-122 activator. A genus of compounds that may have activity as modifiers of miR122 function are the Diversity Set II (1364 compounds) from the NCI Developmental Therapeutics Program was screened using Huh7 cells containing the psiCHECK-miR122 reporter. Cells were exposed to the small molecules and the relative luciferase signal was measured after 48 hours using a Dual Luciferase Assay Kit (Promega). In another embodiment the cells can be exposed to the small molecules for about 24-96 hours. As explained above, other assays and procedures that can determine the amount of the one or more reporter genes or miR-122 expression, activity or function can be used.
The analogs were screened for activity using the previously described miR-122 assay. All cells were treated with 10 μM of a compound and experiments were performed in triplicate to ensure statistical validity. The data was normalized to a 1% DMSO control and is reported in relative luciferase units (RLU). The standard deviation was calculated from three independent assays. Some analogs of miR-122 inhibitor compound 1 are:
Huh7 and HeLa cells were transfected at approximately 60% confluency with either the psiCHECK-Control plasmid (the original psiCHECK-2 plasmid containing no known miRNA binding site) or the psiCHECK-miR122 plasmid (0.5 μg) using X-tremGENE transfection reagent (3:2 reagent/DNA ratio; Roche) in Opti-Mem media (Invitrogen). All transfections were performed in triplicate for statistical analysis. The cells were incubated at 37° C. for 4 hours followed by the replacement of transfection media with standard DMEM growth media. After 48 hours of incubation the media was removed, cells were lysed and assayed with a Dual Luciferase Assay Kit (Promega) using a Wallac VICTOR^3V luminometer with a measurement time of 1 s and a delay time of 2 s. […]

SMILES | normalized Renilla luciferase signal with psiCHECK-control vector [1] | activity in miRNA-21 reporter (luciferase signal) [2] | EC50 [3] [µM] | Renilla luciferase expression with psiCHECK-miR122 (in words) [3] | increase in the relative luciferase signal [3] [%] | relative luciferase units (RLU) normalized to a DMSO control [3] [RLU]
O=S(=O)(c1ccc2c(c1)CCCN2)N1CCC[C@H]2CCCC[C@@H]21 [Compound 2] | no statistically significant alteration | no activity was found | 12.5 ± 1.25 | significant increase | 1251±125 | 12.51±1.25
O=C(Nc1ccc2ccccc2c1)c1ccc(Cl)cc1Cl [Compound 1] | no statistically significant alteration | no activity was found | 7.73 ± 0.38 | significant increase | 773±38 | 7.73±0.38
